Laboratory results reported in patent US5656460A, “α-glycosyl derivative of the catecholamine or its salt, and its preparation and uses” (Kabushiki Kaisha Hayashibara Seibutsu Kagaku Kenkyujo, priority 1992, dated 1997).

How the values were obtained:
[1] = Solubility in solvent; format: physicochemical
[2] = Reducing reaction by the Nelson-Somogyi's method; format: physicochemical
Text: The α-glucosyl methyldopa preparations [I] and [II] turn green on the anthrone-sulfuric acid reaction. The preparations are negative on a reducing reaction by the Nelson-Somogy's method;

[3] = system: α-glucosidase (EC 3.2.1.20); assay: Stability against hydrolysis by α-glucosidase; format: in vitro ADME, pig; settings: forms the catecholamine (methyldopa) and D-glucose
Text: (6) Stability against hydrolysis (a) The α-glucosyl methyldopa preparations [I] and [II] are hydrolyzed by α-glucosidase (EC 3.2.1.20) specimen derived from pig liver to form methyldopa and D-glucose;

[4] = system: β-glucosidase; assay: Stability against hydrolysis by β-glucosidase; format: in vitro ADME
Text: (6) Stability against hydrolysis

[5] = Stability in aqueous solution (coloring degree at 400 nm relating to oxidation); format: physicochemical; settings: 100 mM phosphate buffer pH 8.0, 25° C.; for Stability compared with intact methyldopa: up to 9 days; for Coloring degree at 400 nm: 100 ppm
Method: Fifty ml aliquots of 100 mM phosphate buffer (pH 8.0) were distributed into 50 ml-flasks, added with the α-glucosyl methyldopa preparation [I] or [II] to give a concentration of 100 ppm, allowed to stand at 25° C., and sampled at a prescribed time interval to determine the stability of the preparation.
Intact methyldopa was used as a control. Five ml solution was collected from each flask at a prescribed time interval, and subjected to the measurement of the coloring degree at 400 nm relating to the oxidation of methyldopa.

[6] = system: 7-week-old dd mice; assay: Acute toxicity test (oral, mice); format: in vivo
Method: The α-glucosyl methyldopa preparations [I] and [II] were tested for their acute toxicity by orally administering them to 7-week-old dd mice.

SMILES | Solubility in benzen [1] | Solubility in chloroform [1] | Solubility in ethanol [1] | Solubility in ether [1] | Solubility in methanol [1] | Solubility in water [1] | Reducing reaction / reducing activity [2] | Hydrolysis by α-glucosidase [3] | Hydrolysis by β-glucosidase [4] | Stability compared with intact methyldopa [5] | Coloring degree at 400 nm ([5]; day 0) | Coloring degree at 400 nm ([5]; day 1) | Coloring degree at 400 nm ([5]; day 3) | Coloring degree at 400 nm ([5]; day 5) | Coloring degree at 400 nm ([5]; day 9) | Acute toxicity: dose up to which no mouse died [6] [g/kg]
CC(N)(Cc1ccc(O[C@H]2O[C@H](CO)[C@@H](O)[C@H](O)[C@H]2O)c(O)c1)C(=O)O (stereo partly drawn) [α-glucosyl methyldopa preparation [II], 3-[3-hydroxy-(4-α-D-glucopyranosyl)]-2-methylalanine] | insoluble | insoluble | slightly soluble | insoluble | slightly soluble | readily soluble | negative | hydrolyzed | not hydrolyzed | much stabler than intact methyldopa | 0.0 | 0.0 | 0.0 | 0.0 | 0.0 | ≥ 5
CC(N)(Cc1ccc(O)c(O[C@H]2O[C@H](CO)[C@@H](O)[C@H](O)[C@H]2O)c1)C(=O)O (stereo partly drawn) [α-glucosyl methyldopa preparation [I], 3-[4-hydroxy-(3-α-D-glucopyranosyl)]-2-methylalanine] | insoluble | insoluble | slightly soluble | insoluble | slightly soluble | readily soluble | negative | hydrolyzed | not hydrolyzed | much stabler than intact methyldopa | 0.0 | 0.0 | 0.0 | 0.0 | 0.0 | ≥ 5
